Assay results taken from patent publication US5578315A, “Mucosal adhesive device for long-acting delivery of pharmaceutical combinations in oral cavity” (Rutgers, The State University of New Jersey, priority 1993, dated 1996).
≈ marks a conversion by molar mass, not a printed value.

Experiment: Solubility in isotonic phosphate buffer containing PEG 400
Assay type: physicochemical
Description: For use of clotrimazole, solubility in phosphate buffer is an issue and therefore, 20% and 40% PEG 400 are added to the phosphate buffer and the solubility is determined.

Work on `Clc1ccccc1C(c1ccccc1)(c1ccccc1)n1ccnc1` [clotrimazole, Clotrimazole] yielded a solubility (organic solvent or mixture, isotonic phosphate buffer (pH 6.8) containing 20% PEG 400) of roughly 60 µg/mL (≈ 174 µM) and a solubility (pH 6.8, organic solvent or mixture, phosphate buffer containing 40% PEG 400) of roughly 430 µg/mL (≈ 1250 µM).
